Experimental data as given in patent US20050123613A1, “Activated carbon infusion solution, preparation method therefor and use thereof for the manufacture of drug for treating cancer” (priority 2003, published 2005).

Experiments:
cancer patients = assay: Experimental clinical cases, intravenous injection; assay type: in vivo, human; conditions: Case 4, breast cancer with systematic metastasis, before activated carbon treatment
[1] = Measured adsorption values of drugs on hydroxyl-amino carbon; assay type: physicochemical; conditions: specific surface area 6800M^2/g
[2] = Measured adsorption values of drugs on activated carbon; assay type: physicochemical; conditions: specific surface area 6800M^2/g

Compound | Analgesia (cancer patients) | Adsorption value on hydroxyl-amino carbon [1] [mg] | Adsorption value on activated carbon [2] [mg]
CN1CC[C@]23c4c5ccc(O)c4O[C@H]2[C@@H](O)C=C[C@H]3[C@H]1C5 [Morphine] | of no effect |  | 
S=c1nc[nH]c2nc[nH]c12 [Example 6-MP, 6-MP, reference compound] |  | 304 | 220
O=c1cc[nH]c(=O)[nH]1 [uracil] |  | 51 | 33
Cc1c[nH]c(=O)[nH]c1=O [thymine] |  | 17 | 5
ClC(Cl)Cl [chloroform] |  | 4 | 10
thymopeptide |  | 127 | 90
O=P1(N(CCCl)CCCl)NCCCO1 (stereo not drawn) [CTX, reference compound] |  | 136 | 98
Nc1ncnc2nc[nH]c12 [adenine] |  | 260 | 213
N.N.[Cl][Pt][Cl] [cisplatin, reference compound] |  | 1105 | 995
O=c1[nH]cc(F)c(=O)[nH]1 [5-fluorouracil, reference compound] |  | 49 | 
O=c1[nH]cc(Cl)c(=O)[nH]1 [5-chlorouracil] |  | 102 | 75
ferroporphyrin |  | 311 | 283
Nc1nc2nc[nH]c2c(=O)[nH]1 [guanine] |  | 378 | 331
